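Briefly, cells in 96-well plates were exposed to five compound concentrations for 48 h, and endpoints were estimated by linear interpolation. TGI: total growth inhibition.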 Where only a bound is given, the exact number is not on record here.

Data on 13 molecules can be found in PubChem BioAssay (NCI).

Test systems include DU-145 prostate; EKVX NSCLC; HT29 colon; MALME-3M melanoma; MCF7 breast; NCI-H460 lung; PC-3 prostate; RPMI-8226 leukemia; SW-620 colon; U251 CNS.
Common to all, as to experiment: NCI-60 cell line screen, 48 h

On to `N#Cc1nc(CCCN2C(=O)c3ccccc3C2=O)oc1N`, for which the TGI in the test on DU-145 prostate, in the test with EKVX NSCLC, in the test with HT29 colon, with MALME-3M melanoma, with MCF7 breast and in the test on NCI-H460 lung was more than 100 µM in each case. Moreover, the TGI in the test on PC-3 prostate, with RPMI-8226 leukemia, in the test with SW-620 colon and with U251 CNS was more than 100 µM throughout.
As to `O=C1NC(=S)NC(=O)C1C(c1ccc(Cl)cc1)C1C(=O)NC(=S)NC1=O`, the TGI in the test with DU-145 prostate, in the test on EKVX NSCLC, in the test on HT29 colon, with MALME-3M melanoma, in the test on MCF7 breast and with NCI-H460 lung was more than 100 µM each time. Also, the TGI in the test on PC-3 prostate, in the test on RPMI-8226 leukemia, with SW-620 colon and with U251 CNS was more than 100 µM throughout.
`Cc1nc(SCC(N)=O)c2sc(=S)n(-c3ccccc3)c2n1`: the TGI in the test with DU-145 prostate, in the test with EKVX NSCLC, in the test with HT29 colon, in the test with MALME-3M melanoma, in the test with MCF7 breast and in the test with NCI-H460 lung was more than 10 µM in each case. Further, the TGI in the test with PC-3 prostate, in the test with RPMI-8226 leukemia, in the test with SW-620 colon and with U251 CNS was more than 10 µM each time.
On to `O=C1CS/C(=N/N=C/c2cn(Cc3ccc(Cl)cc3Cl)c3ccccc23)N1`, for which the TGI in the test with DU-145 prostate was more than 100 µM; with EKVX NSCLC it was 48.5 µM; with HT29 colon, more than 100 µM; with MALME-3M melanoma it was more than 100 µM; in the test with MCF7 breast it was 61.6 µM; in the test with NCI-H460 lung, more than 100 µM. For the same molecule, the TGI in the test with PC-3 prostate was 76.8 µM; in the test on RPMI-8226 leukemia, more than 100 µM; in the test with SW-620 colon, more than 100 µM; in the test on U251 CNS, 37.2 µM.
With `NC(Cc1[nH]nc2ccccc12)C(=O)O` (stereo not given), the TGI with DU-145 prostate, in the test with EKVX NSCLC, in the test with HT29 colon, in the test on MALME-3M melanoma, in the test with MCF7 breast and in the test with NCI-H460 lung was more than 100 µM throughout. Moreover, the TGI with PC-3 prostate, in the test with RPMI-8226 leukemia, in the test on SW-620 colon and with U251 CNS was more than 100 µM in each case.
In the case of `CCOc1ccc(NCC2CC/C(=C\C=C\c3ccccc3)C2=O)cc1` (stereo not given), the TGI is more than 93.3 µM in the test on DU-145 prostate; more than 86.2 µM in the test on EKVX NSCLC; 30.3 µM in the test with HT29 colon; 57.8 µM in the test on MALME-3M melanoma; 12.3 µM in the test on MCF7 breast; more than 80.8 µM with NCI-H460 lung. Also, the TGI in the test on PC-3 prostate is 49.8 µM; in the test on RPMI-8226 leukemia, more than 100 µM; with SW-620 colon it was 21.3 µM; in the test with U251 CNS, 35.5 µM.
Take `C=C1C[C@@H]2CC[C@@]34C[C@H]5O[C@H]6[C@@H](O3)[C@H]3O[C@H](CC[C@@H]3O[C@H]6[C@H]5O4)CC(=O)C[C@@H]3[C@@H](OC)[C@@H](C[C@H](O)CN)O[C@H]3C[C@H]3O[C@@H](CC[C@@H]1O2)C[C@@H](C)C3=C`: the TGI is 0.0241 µM in the test on DU-145 prostate; 0.273 µM with EKVX NSCLC; 0.0133 µM in the test with HT29 colon; more than 1 µM in the test with MALME-3M melanoma; more than 1 µM in the test with MCF7 breast; 0.161 µM with NCI-H460 lung. In addition, the TGI with PC-3 prostate was more than 0.12 µM; in the test on RPMI-8226 leukemia it was 0.0344 µM; with SW-620 colon, more than 1 µM; with U251 CNS it was more than 0.199 µM.
With `Clc1ccc(OCc2nnc(COc3ccc(OCc4nnc(COc5ccc(Cl)cc5Cl)o4)c(Cl)c3)o2)c(Cl)c1`, the TGI is more than 100 µM in the test with DU-145 prostate; 45.2 µM in the test on EKVX NSCLC; 87.5 µM in the test on HT29 colon; more than 100 µM with MALME-3M melanoma; more than 100 µM in the test with MCF7 breast; more than 100 µM with NCI-H460 lung. The TGI in the test on PC-3 prostate was more than 100 µM; in the test on RPMI-8226 leukemia it was 39.6 µM; in the test with SW-620 colon, more than 100 µM; in the test with U251 CNS, 54.7 µM.
As to `COc1cc2[nH]c(=O)c3cc(-c4ccccc4)cc4c(Cl)nc(c1OC)c2c43`, the TGI in the test on DU-145 prostate is more than 100 µM; with EKVX NSCLC, 64 µM; in the test on HT29 colon, more than 60.7 µM; in the test on MALME-3M melanoma it was 17.1 µM; in the test on MCF7 breast, 7.71 µM; in the test on NCI-H460 lung it was more than 82.9 µM. The TGI with PC-3 prostate was more than 100 µM; with RPMI-8226 leukemia, more than 100 µM; with SW-620 colon, more than 66.1 µM; in the test with U251 CNS, 62.5 µM.
For `O=C(O)C1=NN(c2ccc(S(=O)(=O)O)cc2)C2(C1)C(Cl)C(=O)N2c1nc2ccccc2s1` (stereo not given), the TGI with DU-145 prostate was 55.9 µM; in the test on EKVX NSCLC, 34.3 µM; in the test with HT29 colon, 34.9 µM; in the test on MALME-3M melanoma, 38.7 µM; in the test with MCF7 breast it was 29.9 µM; with NCI-H460 lung, 33.2 µM. The TGI in the test on PC-3 prostate is 31.2 µM; in the test with RPMI-8226 leukemia it was 35.6 µM; in the test on SW-620 colon it was 19.8 µM; in the test with U251 CNS it was 32.1 µM.
On to `N#C/C(=C\c1cccc(Br)c1)c1nc2ccccc2c(=O)[nH]1`, for which the TGI with DU-145 prostate, in the test with EKVX NSCLC, in the test on HT29 colon, with MALME-3M melanoma, with MCF7 breast and in the test with NCI-H460 lung was more than 100 µM throughout. Besides, the TGI in the test with PC-3 prostate, in the test on RPMI-8226 leukemia, with SW-620 colon and in the test on U251 CNS was more than 100 µM in each case.
In the case of `Oc1c(OCc2nnc(CCCCCCCCc3nnc(COc4ccc5ccccc5c4O)o3)o2)ccc2ccccc12`, the TGI in the test on DU-145 prostate, with EKVX NSCLC, in the test with HT29 colon, in the test on MALME-3M melanoma, with MCF7 breast and with NCI-H460 lung was more than 100 µM in each case. The TGI with PC-3 prostate, in the test on RPMI-8226 leukemia, in the test on SW-620 colon and with U251 CNS was more than 100 µM throughout.
Regarding `O=CN1CCN(C(=O)c2ccco2)C1=S`, the TGI turned out to be 11.6 µM with DU-145 prostate; 41.3 µM in the test on EKVX NSCLC; 26.2 µM in the test with HT29 colon; 29.9 µM in the test with MALME-3M melanoma; 10.6 µM in the test with MCF7 breast; 42.1 µM in the test with NCI-H460 lung. Also, the TGI in the test with PC-3 prostate was 23 µM; in the test on RPMI-8226 leukemia, 8.96 µM; in the test with SW-620 colon it was more than 46.5 µM; in the test on U251 CNS it was 32.5 µM.
